Experimental findings from ChEMBL document CHEMBL1149475, “Evaluation of antitumor properties of novel saframycin analogs in vitro and in vivo” (Bioorg Med Chem Lett, 2006) are described below.

Data set [1] has as its system HCT-116. The experiment in a line: Antiproliferative activity against human HCT116 cells. Type of data set: functional.
In the next data set the test system is PC-3. The experiment in a line: Antiproliferative activity against human PC3 cells. The format is functional.
In the next data set the test system is DLD-1. Description: Antiproliferative activity against human DLD1 cells. The format is functional.
The test system of another data set is A549. The experiment in a line: Antiproliferative activity against human A549 cells. Type of data set: functional.
The next data set concerns MDA-MB-231. Description: Antiproliferative activity against human […] cells. Type of data set: functional.
The next data set concerns BXPC-3. Description: Antiproliferative activity against human BxPC3 cells. Type of data set: functional.
A further data set deals with NALM-6. The experiment in a line: Antiproliferative activity against human Nalm6 cells. The format is functional.
The test system of the next data set is HeLa. The experiment in a line: Antiproliferative activity against human HeLa-S3 cells. The format is functional.
In another data set the test system is HT-1080. The experiment in a line: Antiproliferative activity against human HT1080 cells. Type of data set: functional.
The nature of data set [2]: Beta half life in Balb/C mouse at 0.5 mg/kg, iv and 2 mg/kg, ip. Type of data set: ADME, organism-based. Conditions: in vivo, read-out: beta t1/2; call rule not given here.
Data set [3] is described as follows: Alpha half life in Balb/C mouse at 0.5 mg/kg, iv and 2 mg/kg, ip. The conditions noted are these: in vivo. Type of data set: ADME, organism-based.
Data set [4] in a line: Clearance in Balb/C mouse at 0.5 mg/kg, iv and 2 mg/kg, ip. The format is ADME, organism-based. Conditions: in vivo.
Another data set has as its system NCI-H1299. Description: Antiproliferative activity against human H1299 cells. The format is functional.
A short description of data set [5]: Bioavailability in Balb/C mouse at 0.5 mg/kg, iv and 2 mg/kg, ip. Type of data set: ADME, organism-based. Conditions: in vivo.
The test system of another data set is HT-29. Description: Antiproliferative activity against human HT29 cells. Type of data set: functional.
Data set [6] can be described thus: AUC in Balb/C mouse at 0.5 mg/kg, iv and 2 mg/kg, ip. Type of data set: ADME, organism-based. The conditions noted are these: plasma.
For another data set, the system named is A-375. Description: Antiproliferative activity against human A375 cells. Type of data set: functional.
The next data set deals with CWR22R. The experiment in a line: Antiproliferative activity against human CWR22Rv1 cells. The format is functional. Conditions: 22Rv1.
Data set [7] can be described thus: Cmax in Balb/C mouse at 0.5 mg/kg, iv and 2 mg/kg, ip. The format is ADME, organism-based. Conditions: in vivo.
Another data set relates to P12-Ichikawa. Description: Antiproliferative activity against human P12 cells. The format is functional.
Another data set concerns DU-145. The experiment in a line: Antiproliferative activity against human DU145 cells. The format is functional.
Data set [8] deals with HCT-116. The experiment in a line: Antitumor activity against human HCT116 cells transplanted in mouse at 2.5 mg/kg, ip. The format is functional. The conditions noted are these: HCT-116, ip, route intraperitoneal, read-out: TGI.
In data set [9] the test system is HCT-116. Description: Antitumor activity against human HCT116 cells transplanted in mouse at 1.25 mg/kg, ip. The format is functional. Conditions: HCT-116, ip, route intraperitoneal, read-out: TGI.
The test system of data set [10] is Mus musculus. Description: Toxicity in mouse at 2.5 mg/kg, ip assessed as loss of body weight. The format is organism-based. Also on record: dose 2.5 mg/kg, route intraperitoneal. Conditions: in vivo.
In data set [11] the test system is Mus musculus. The experiment in a line: Toxicity in mouse at 1.25 mg/kg, ip assessed as loss of body weight. Type of data set: organism-based. Also on record: dose 1.25 mg/kg, route intraperitoneal. The conditions noted are these: in vivo.

Take `COC1=C(C)C(=O)C2=C(C1=O)[C@@H]1[C@@H]3CC4=C(C(=O)C(OC)=C(C)C4=O)[C@H](CNC(=O)c4cc5cc(OC6CCOCC6)ccc5o4)N3[C@@H](C#N)[C@H](C2)N1C`: the GI50 in the data set on HCT-116 [1] was found to be 17.3 nM; with PC-3 it was 16.5 nM; with DLD-1, 26.5 nM.
For `COc1c(C)c(OC)c2c(c1O)[C@@H]1[C@@H]3Cc4c(OC)c(C)c(OC)c(O)c4[C@H](CNC(=O)c4cc5ccccc5o4)N3[C@@H](C#N)[C@H](C2)N1C`, growth in the data set on HCT-116 [1] was halved (GI50) at 5.5 nM.
Regarding `COc1c(C)c(OC)c2c(c1O)[C@@H]1[C@@H]3Cc4c(OC)c(C)c(OC)c(O)c4[C@H](CNC(=O)c4cc5cc(OC6CCOCC6)ccc5o4)N3C[C@H](C2)N1C`, the GI50 in the data set on HCT-116 [1] was > 300 nM.
In the case of `COc1c(C)c(OC)c2c(c1O)[C@@H]1[C@@H]3Cc4c(OC)c(C)c(OC)c(O)c4[C@H](CNC(=O)c4cc5cc(OCCN6CCOCC6)ccc5o4)N3[C@@H](C#N)[C@H](C2)N1C`, the GI50 in the data set with HCT-116 [1] came to 8.1 nM; in the data set with PC-3, 11.7 nM; with A549, 57.5 nM; in the data set with DLD-1, 22.4 nM.
As to `COc1c(C)c(OC)c2c(c1O)[C@@H]1[C@@H]3Cc4c(OC)c(C)c(OC)c(O)c4[C@H](CNC(=O)c4ccc5ccccc5n4)N3[C@@H](C#N)[C@H](C2)N1C`, the GI50 in the data set with MDA-MB-231 was found to be 4.5 nM; in the data set on BXPC-3, 5.8 nM; with NALM-6, 0.6 nM; with HeLa, 6.6 nM; with HT-1080 it was 5 nM; in the data set with HCT-116 [1] it was 5.8 nM. Besides, the GI50 came out at 6.2 nM in the data set on PC-3; 6.2 nM in the data set with NCI-H1299; 7.5 nM in the data set on HT-29; 1.3 nM in the data set on A-375; 1.1 nM in the data set on CWR22R; 10.7 nM in the data set on A549. Moreover, the values for the GI50 with P12-Ichikawa, in the data set on DU-145 and in the data set with DLD-1 were 1.9 nM, 6.9 nM and 8.1 nM, respectively. Besides, the half-life came to 17 min in data set [2] and 3.5 min in data set [3]. In addition, the clearance in [4] is 72 mL/min/kg. Also, the bioavailability in data set [5] came to 46%. The molecule further had an AUC in [6] of 0.167 µM·h. For the same molecule, the Cmax in [7] came out at 1100 nM.
Take `COc1c(C)c(OC)c2c(c1O)[C@@H]1[C@@H]3Cc4c(OC)c(C)c(OC)c(O)c4[C@H](CNC(=O)c4cc5cc(OC6CCOCC6)ccc5o4)N3[C@@H](O)[C@H](C2)N1C`: the GI50 with HCT-116 [1] is 5.5 nM; in the data set on PC-3, 5 nM; in the data set on A549, 20.6 nM; in the data set with DLD-1, 10.4 nM.
`COc1c(C)c(OC)c2c(c1O)[C@@H]1[C@@H]3Cc4c(OC)c(C)c(OC)c(O)c4[C@H](CNC(=O)c4ccc(CNS(=O)(=O)c5cccc6c(N(C)C)cccc56)cc4)N3[C@@H](C#N)[C@H](C2)N1C` yielded a concentration for 50% growth inhibition (GI50) in the data set with HCT-116 [1] of 201 nM.
As for `COc1c(C)c(OC)c2c(c1O)[C@@H]1[C@@H]3Cc4c(OC)c(C)c(OC)c(O)c4[C@H](CNC(=O)c4cc5cc(OC6CCOCC6)ccc5o4)N3[C@@H](C#N)[C@H](C2)N1C`, the inhibition in vivo at 2.5 mg/kg in the data set with HCT-116 [8] is 96%. In addition, the inhibition in vivo at 1.25 mg/kg with HCT-116 [9] was 68%. Further, the GI50 in the data set on HCT-116 [1] was 3.2 nM; in the data set with PC-3 it was 2.7 nM; with A549 it was 18.9 nM; with DLD-1 it was 8.3 nM. Moreover, the results for the half-life in data set [2] and in data set [3] were 25 min and 3 min, respectively. In data set [4], this molecule gave a clearance of 45 mL/min/kg. Besides, the bioavailability in data set [5] came to 38%. In addition, the outcome in the data set on Mus musculus [10] and in the data set with Mus musculus [11] was Active. This molecule also had an AUC in [6] of 0.483 µM·h. This molecule came in with a Cmax in [7] of 3700 nM.

As a reminder, the GI50 is the concentration giving 50% growth inhibition. The low end stands for greater sensitivity of the cells, the high end for lower sensitivity of the cells. A word on the bioavailability: it is dose-corrected exposure relative to a reference, in per cent. A low value points to poor availability. As a reminder, the AUC is concentration integrated over time. A higher AUC goes with high exposure. What is called Cmax is the maximum level reached in the sampled fluid or tissue.
